Test system: CT26 mouse colon carcinoma model
Experiment: In vivo co-localisation of Cy7 labelled nCVTs, IVIS imaging
Protocol: The nCVTs labelled with cyanine 7 NHS Monoester dye (Cy7) of Example 7 were compared with similarly labeled liposomes of the same lipid constitution (Liposomes produced for loading and in vitro testing were prepared with 1.95 mg of DPPC and 0.05 mg of Cholesterol. Liposomes produced for in vivo experiments were PEGylated, and prepared with 2.61 mg of DPPC, 1.61 mg of DSPE-PEG2000 and 0.78 mg of cholesterol.) The samples were then injected through the tail vein of a CT26 mouse colon carcinoma model, with tumour formation subcutaneously on the back of the mouse.
Three groups of mice were injected with Cy7 labelled nCVTs, Cy7 labelled liposomes and free dye. After 24 hours, the mice were imaged using the In Vivo Imaging Systems (IVIS) spectrum.

cyanine 7 NHS Monoester dye [free dye]
Relative fluorescence intensity of excised liver and kidney (24 hours, liposomes are PEGylated): reduced fluorescence intensity | Accumulation of fluorescence at the tumour site (IVIS, whole mice) (tail vein injection, after 24 hours, liposomes are PEGylated): does not accumulate in the tumours | Clearance (tail vein injection, mouse): rapidly cleared | Elimination from the mouse (within 24 hours): largely eliminated

— patent US12433843B2, “Biomolecular composites comprising modified cell ghosts” (National University of Singapore, priority 2017, dated 2025)
